Patent US9504671B2, “Pharmaceutical compositions of spiro-oxindole compound for topical administration and their use as therapeutic agents” (Xenon Pharmaceuticals Inc., priority 2010, dated 2016)
“And” between values parts separate entries of the source, which are not always exact repeats. Equal entries are not always repeated.

How the values were obtained:
[1] = system: CCI-induced neuropathic pain model; assay: time course of efficacy in neuropathic pain model, Chronic Constriction Injury, von Frey; assay type: in vivo, Sprague-Dawley rats
Method: Neuropathic pain is characterized by spontaneous pain and stimulus-evoked allodynia and hyperalgesia. Pharmaceutical compositions of the invention were evaluated in Chronic Constriction Injury model using Sprague-Dawley rats as described below.
An approximately 3 cm incision was made through the skin and the fascia at the mid thigh level of a rat's left hind leg using a no. 10 scalpel blade. The left sciatic nerve was exposed via blunt dissection through the biceps femoris with care to minimize haemorrhagia. Four loose ligatures were tied along the sciatic nerve using four chromic gut sutures at intervals of 1 mm to 2 mm apart. The tension of the loose ligatures was tight enough to induce slight constriction of the sciatic nerve when viewed under a dissection microscope at a magnification of 4 fold. As sham controls, the right sciatic nerve was exposed and manipulated in the same manner as described above, except sutures were not tied onto the nerve. Antibacterial ointment was applied directly into the wound, and the muscle was closed using sterilized sutures. Betadine® was applied onto the muscle and its surroundings, followed by skin closure with surgical clips.
A painful neuropathy was allowed to develop for at least 14 days in the ipsilateral leg as determined by lower paw withdrawal thresholds to a mechanical stimulus. Only those with significant hyperalgesia, as determined by reduced threshold of paw withdrawal to the von Frey filament, measured in grams, were enrolled in the study.
The response thresholds of animals to tactile stimuli were measured using the Model 2290 Electrovonfrey anesthesiometer (IITC Life Science, Woodland Hills, Calif.). Animals were placed in an elevated Plexiglass enclosure set on a mire mesh surface. After 15 minutes of accommodation, a von Frey hair was applied perpendicularly to the plantar surface of the ipsilateral hind paws of the animals with sufficient force, measured in grams, to elicit a crisp response of the paw. The response indicated a withdrawal from the painful stimulus and constituted the efficacy endpoint. The force (in grams) required to elicit a crisp withdrawal response was recorded before dosing as a baseline measurement, and at multiple time points post-dosing.
Three days prior to baseline measurement, animals were anaesthetized under isoflurane and the whole of the ipsilateral hind legs, including the upper sciatic notch thigh area, ankle and foot, was shaved. The animals were then randomly assigned to one of 4 different test groups including a vehicle control group, a 5% (w/v) Lidocaine (Xylocaine®), and 2 pharmaceutical compositions of the invention comprising COMPOUND A at 4% (w/w) containing either 5% or 10% Transcutol® P. After baseline measurement, 100 mg of the test composition was applied on the entire shaved area. The animals were then placed in plastic tubes for at least 15 minutes, to prevent early removal/ingestion of drug. Subsequently, animals were placed in the Plexiglas enclosure 15 minutes before von Frey measurement at the respective time points. Von Frey withdrawal thresholds were measured as the mean of several independent determinations made within 1-2 minutes of each other on the affected paw of each animal at 0.5, 1 and 2 hours post dosing.

sodium channel = assay: guanidine influx assay disclosed in WO 06/110917; assay type: cell-based; settings: read-out: IC50, inhibition of ion flux through a sodium channel
Text: The IC50 (“Inhibitory Concentration—50%”) is a measure of the amount of compound required to achieve 50% inhibition of ion flux through a sodium channel, over a specific time period, in an assay of the invention.

[2] = system: CCI neuropathic pain model; assay: efficacy of topical versus oral administration, Chronic Constriction Injury, von Frey; assay type: in vivo, male Sprague Dawley rats; settings: p<0.001 vs vehicle
Text: The Chronic Constriction Injury (CCI) model, an established neuropathic pain model in the rat, is used in this study to compare the levels of efficacy and systemic exposure of COMPOUND A between the topical and oral administration in male rats.
A peripheral neuropathy was induced in rats by placing loose constrictive ligatures around the common sciatic nerve as described by Bennett G J, and Xie Y-K., Pain, (1988) 33: pp. 87-107. Eight-week old male Sprague Dawley rats were anaesthetized with 3.5% isoflurane, and a 3 cm incision was made through the skin and fascia at the mid-thigh level of the animal's left hind leg using a no. 10 scalpel blade. […]
A painful neuropathy was allowed to develop in the ipsilateral leg as determined by lower paw withdrawal thresholds to a mechanical stimulus. Only those with significant hyperalgesia as determined by reduced threshold, measured in grams, to paw withdrawal to the von Frey filament were enrolled in the study.
The paw withdrawal thresholds of animals from mechanical tactile stimuli were measured using the Model 2290 Electrovonfrey anesthesiometer (IITC Life Science, Woodland Hills, Calif.). […] After 15 minutes of accommodation in this enclosure, a von Frey hair was applied perpendicularly to the plantar surface of the ipsilateral hind paws of the animals, with sufficient force, measured in grams, to elicit a crisp response of the paw. […]

IC50 (sodium channel): < 1000 nM
SMILES: O=C1N(Cc2ccc(C(F)(F)F)o2)c2ccccc2[C@]12COc1cc3c(cc12)OCO3 [COMPOUND A, (S)-1′-{[5-(trifluoromethyl)furan-2-yl]methyl}spiro[furo[2,3-f][1,3]benzodioxole-7,3′-indol]-2′(1′H)-one]
paw withdrawal threshold, percent mean change from baseline (CFB) ([1]; 4% (w/w) in 5% Transcutol P composition, 100 mg applied, 0.5 hours post-dosing): +26.3%
paw withdrawal threshold, percent mean change from baseline (CFB) ([1]; 4% (w/w) in 5% Transcutol P composition, 1 hour post-dosing): +18.1%
paw withdrawal threshold, percent mean change from baseline (CFB) ([1]; 4% (w/w) in 10% Transcutol P composition, 100 mg applied, 0.5 hours post-dosing): +33.8%
paw withdrawal threshold, percent mean change from baseline (CFB) ([1]; 4% (w/w) in 10% Transcutol P composition, 1 hour post-dosing): +26.7%
duration of analgesic effects post-dosing ([1]; 4% (w/w) in 10% transcutol composition, from 0.5 hour): up to 2 hours
paw withdrawal threshold, percent mean change from baseline (CFB) ([2]; 25 mg/Kg oral gavage, 60 minutes post-dosing): 44.3% and 44%
paw withdrawal threshold, percent mean change from baseline (CFB) ([2]; 8% (w/w) topical, 50 mg on ipsilateral ankle and foot, 30 minutes post-dosing): 47.1% and 47%
